Positions count from the first letter of the chain named.
Key:
hVAChT wild-type = target: T1, hVAChT wild-type (Homo sapiens, UniProt Q16572); experiment: ACh equilibrium binding by competition against [3H]vesamicol; details: WT hVAChT; pH 7.4
T1 sequence (Q16572 1-532): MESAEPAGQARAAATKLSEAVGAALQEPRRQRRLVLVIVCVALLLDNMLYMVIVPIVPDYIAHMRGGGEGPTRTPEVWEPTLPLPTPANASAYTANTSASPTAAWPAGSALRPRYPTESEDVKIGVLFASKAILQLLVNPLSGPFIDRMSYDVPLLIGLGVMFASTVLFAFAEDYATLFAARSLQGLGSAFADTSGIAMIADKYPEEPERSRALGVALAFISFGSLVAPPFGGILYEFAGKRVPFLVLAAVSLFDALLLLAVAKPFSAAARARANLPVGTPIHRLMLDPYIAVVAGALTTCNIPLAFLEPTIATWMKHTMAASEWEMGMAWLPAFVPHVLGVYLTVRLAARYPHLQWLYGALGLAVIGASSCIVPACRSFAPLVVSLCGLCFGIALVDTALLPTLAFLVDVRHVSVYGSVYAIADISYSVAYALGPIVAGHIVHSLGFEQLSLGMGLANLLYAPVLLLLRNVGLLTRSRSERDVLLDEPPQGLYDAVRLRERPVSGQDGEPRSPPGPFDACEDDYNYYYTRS

hVAChT Y60H = target: T2, hVAChT Y60H (Homo sapiens, UniProt Q16572, Y60H); experiment: [3H]ACh transport; assay type: biochemical
T2 sequence (Q16572 1-532 Y60H): T1 sequence (Q16572 1-532) with Y60H

hVAChT F231A = target: T3, hVAChT F231A (Homo sapiens, UniProt Q16572, F231A); experiment: ACh equilibrium binding by competition against [3H]vesamicol
T3 sequence (Q16572 1-532 F231A): T1 sequence (Q16572 1-532) with F231A

hVAChT W315A = target: T4, hVAChT W315A (Homo sapiens, UniProt Q16572, W315A); experiment: as above
T4 sequence (Q16572 1-532 W315A): T1 sequence (Q16572 1-532) with W315A

hVAChT F392A [1] = target: T5, hVAChT F392A (Homo sapiens, UniProt Q16572, F392A); experiment: [3H]ACh transport; assay type: biochemical
T5 sequence (Q16572 1-532 F392A): T1 sequence (Q16572 1-532) with F392A

hVAChT F392A [2] = target: T5, hVAChT F392A; experiment: [3H]vesamicol saturation binding; details: pH 7.4
[3] = read-out: KM, Michaelis-Menten constant for ACh transport, pH 7.4

Compound	FHA, fraction of the ACh sites that have high affinity (hVAChT wild-type)	Vmax/Bmax, ACh transport normalized to Bmax (hVAChT Y60H; pH 7.4) [min⁻¹]	Km (hVAChT Y60H; [3]) [µM]	Kd (hVAChT F231A) [mM]	FHA, fraction of the ACh sites that have high affinity (hVAChT F231A; F231A hVAChT, pH 7.4)	Kd (hVAChT W315A) [mM]	FHA, fraction of the ACh sites that have high affinity (hVAChT W315A; W315A hVAChT, pH 7.4)	Vmax/Bmax, ACh transport normalized to Bmax (hVAChT F392A [1]; pH 7.4) [min⁻¹]	Km (hVAChT F392A [1]; [3]) [µM]	Bmax, maximal specific [3H]vesamicol binding (VAChT expression level) (hVAChT F392A [2]) [pmol/mg]
CC(=O)OCC[N+](C)(C)C [ACh, acetylcholine]	0.82 ± 0.04	3.1 ± 0.6	720 ± 530	5.8 ± 1.2	0.67 ± 0.05	11 ± 4	0.84 ± 0.16	11 ± 1	520 ± 110	
O[C@@H]1CCCC[C@H]1N1CCC(c2ccccc2)CC1 (racemic) [vesamicol, ( )-trans-2-(4-phenylpiperidino)cyclohexanol]										93 ± 5

Source: PMC2962730 (Journal of neurochemistry, 2010)
